From patent publication US7605172B2, “Thiazolo-naphthyl acids” (Wyeth, priority 2004, dated 2009)

What was measured:
[1] = biological target: T1, recombinant human plasminogen activator inhibitor-1 (PAI-1) (Homo sapiens, UniProt P05121); test: Primary screen for the PAI-1 inhibition; assay type: biochemical; settings: for inhibition at 10 µM: 10 μM test compound; for inhibition at 25 µM: 25 μM test compound
T1 construct: purchased Molecular Innovations, Royal Oak, Mich
Protocol: Test compounds are dissolved in DMSO at a final concentration of 10 mM, then diluted 100× in physiologic buffer. The inhibitory assay is initiated by the addition of the test compound (1-100 μM final concentration, maximun DMSO concentration of 0.2%) in a pH 6.6 buffer containing 140 nM recombinant human plasminogen activator inhibitor-1 (PAI-1; Molecular Innovations, Royal Oak, Mich.). Following a 1 hour incubation at room temperature, 70 nM of recombinant human tissue plasminogen activator (tPA) is added, and the combination of the test compound, PAI-1 and tPA is incubated for an additional 30 minutes. Following the second incubation, Spectrozyme-tPA (American Diagnostica, Greenwich, Conn.), a chromogenic substrate for tPA, is added and absorbance read at 405 nm at 0 and 60 minutes. Relative PAI-1 inhibition is equal to the residual tPA activity in the presence of the test compound and PAI-1. Control treatments include the complete inhibition of tPA by PAI-1 at the molar ratio employed (2:1), and the absence of any effect of the test compound on tPA alone.

human PAI-1 = human PAI-1 (Homo sapiens, UniProt P05121); test: Assay for determining IC50 of inhibition of PAI-1 (Antibody Assay); assay type: binding; settings: active PAI-1 bound to tPA-coated plate
Protocol: This assay is based upon the non-SDS dissociable interaction between tPA and active PAI-1. Assay plates are initially coated with human tPA (10 μg/ml). Test compounds of the present invention are dissolved in DMSO at 10 mM, then diluted with physiologic buffer (pH 7.5) to a final concentration of 1-50 μM. Test compounds are incubated with human PAI-1 (50 ng/ml) for 15 minutes at room temperature. The tPA-coated plate is washed with a solution of 0.05% Tween 20 and 0.1% BSA, then the plate is blocked with a solution of 3% BSA. An aliquot of the thiazolo-naphthyl acid/PAI-1 solution is then added to the tPA-coated plate, incubated at room temperature for 1 hour, and washed. Active PAI-1 bound to the plate is assessed by adding an aliquot of a 1:1000 dilution of the 33B8 monoclonal antibody against human PAI-1, and incubating the plate at room temperature for 1 hour (Molecular Innovations, Royal Oak, Mich.). The plate is again washed, and a solution of goat anti-mouse IgG-alkaline phosphatase conjugate is added at a 1:50,000 dilution in goat serum. The plate is incubated 30 minutes at room temperature, washed, and a solution of alkaline phosphatase substrate is added. The plate is incubated 45 minutes at room temperature, and color development is determined at OD405 nm. The quantitation of active PAI-1 bound to tPA at varying concentrations of the test compound is used to determine the IC50. Results are analyzed using a logarithmic best-fit equation. The assay sensitivity is 5 ng/ml of human PAI-1 as determined from a standard curve ranging from 0-100 ng/ml.

Chain of human PAI-1 (P05121 24-402): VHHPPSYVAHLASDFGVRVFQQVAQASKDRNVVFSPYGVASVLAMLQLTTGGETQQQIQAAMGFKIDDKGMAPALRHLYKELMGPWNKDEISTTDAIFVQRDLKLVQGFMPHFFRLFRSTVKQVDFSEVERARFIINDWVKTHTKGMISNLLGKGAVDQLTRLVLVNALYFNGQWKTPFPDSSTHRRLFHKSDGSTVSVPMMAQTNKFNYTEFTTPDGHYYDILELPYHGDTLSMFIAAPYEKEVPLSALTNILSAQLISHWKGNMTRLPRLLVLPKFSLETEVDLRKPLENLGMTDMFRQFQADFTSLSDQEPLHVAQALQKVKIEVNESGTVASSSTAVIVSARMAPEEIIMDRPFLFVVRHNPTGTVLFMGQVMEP
T1 sequence (P05121 24-402): as above

Structure (SMILES) | melting point [°C] | inhibition at 10 µM [1] [%] | inhibition at 25 µM [1] [%] | IC50 (human PAI-1) [µM]
O=C(O)C(Cc1ccccc1)Oc1ccc2cc(-c3csc(-c4ccccc4)n3)ccc2c1 (stereo not drawn) [Example 1, 3-phenyl-2-{[6-(2-phenyl-1,3-thiazol-4-yl)-2-naphthyl]oxy}propanoic acid] | 154 to 160 | 4 | 62 | 26.2
c1ccc(-c2nc(-c3ccc4cc(OCc5nnn[nH]5)ccc4c3)cs2)cc1 [Example 2, 5-({[6-(2-phenyl-1,3-thiazol-4-yl)-2-naphthyl]oxy}methyl)-1H-tetraazole] | 226 to 228 | 6 | 59 | 34.3
O=C(O)C(Cc1ccccc1)Oc1ccc2cc(-c3csc(-c4ccccc4)n3)ccc2c1Br (stereo not drawn) [Example 3, 2-{[1-bromo-6-(2-phenyl-1,3-thiazol-4-yl)-2-naphthyl]oxy}-3-phenylpropanoic acid] | 220 to 224 | 1 | 49 | 
O=C(O)COc1ccc2cc(-c3csc(Cc4c(Cl)cccc4Cl)n3)ccc2c1 [Example 6, ({6-[2-(2,6-dichlorobenzyl)-1,3-thiazol-4-yl]-2-naphthyl}oxy)acetic acid] | 205 to 207 | 21 | 43 | 
O=C(O)C(Cc1ccccc1)Oc1ccc2cc(-c3nc(-c4ccccc4)sc3Br)ccc2c1Br (stereo not drawn) [Example 7, 2-{[1-bromo-6-(5-bromo-2-phenyl-1,3-thiazol-4-yl)-2-naphthyl]oxy}-3-phenylpropanoic acid] | 221 to 223 | 20 | 71 | 

Now from value to compound:

melting point [°C] | inhibition at 10 µM [1] [%] | inhibition at 25 µM [1] [%] | IC50 (human PAI-1) [µM] | Structure (SMILES)
268 to 270 |  |  |  | O=C(O)c1ccc(COc2ccc3cc(-c4csc(-c5ccccc5)n4)ccc3c2Br)cc1 (hydrate or solvate) [Example 8, 4-({[1-bromo-6-(2-phenyl-1,3-thiazol-4-yl)-2-naphthyl]oxy}methyl)benzoic acid]
222 to 230 | 40 | 68 | 20.3 | O=C(O)COc1ccc2cc(-c3csc(-c4ccccc4)n3)ccc2c1Br [Example 4, {[1-bromo-6-(2-phenyl-1,3-thiazol-4-yl)-2-naphthyl]oxy}acetic acid]
227 to 231 | 42 | 64 |  | Brc1c(OCc2nnn[nH]2)ccc2cc(-c3csc(-c4ccccc4)n3)ccc12 [Example 5, 5-({[1-bromo-6-(2-phenyl-1,3-thiazol-4-yl)-2-naphthyl]oxy}methyl)-1H-tetraazole]
 | 38 | 49 |  | O=C(O)c1ccc(COc2ccc3cc(-c4csc(-c5ccccc5)n4)ccc3c2Br)cc1 [Example 8, 4-({[1-bromo-6-(2-phenyl-1,3-thiazol-4-yl)-2-naphthyl]oxy}methyl)benzoic acid]
